These results are taken from patent US20240383882A1 (Ecstasy LLC, priority 2020, published 2024).

Structures are written as SMILES. Structures can show the parent of a compound that is named as a salt. Where only a bound is given, the exact number is not on record here.

One assay deals with male C57BL/6 mice. Briefly: 55° C. warm-water tail-flick test (antinociception). The format is in vivo. To be noted: Mus musculus, sc, 0.5 h, compounds of Table I; s.c.; 30 min; 55° C. water; configuration tested as in Table II; read-out: ED50 (mg/kg) at 30 min on C57BL/6 mice in Warm-water Tail-flick Test. Put shortly:
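Mice with baseline tail-flick latency within 2 s at 55° C received compound s.c. and were retested at 30, 60, 90 and 120 min. % antinociception = 100×(test−control latency)/(20−control latency); ED50 in mg/kg.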
Regarding `Cc1ccc(C(C)(C)N2CCC(CCCc3cccs3)(C3CCCO3)C2)cn1` (single isomer, unassigned) [Compound 19], the ED50 is at most 30 mg/kg.
Take `Cc1ccc(C(C)(C)N2CCC(CCc3ccc(F)s3)(C3OCCc4ccccc43)C2)cn1` (single isomer, unassigned) [Compound 94, 5-(2-((R or S)-3-(2-(5-fluorothiophen-2-yl)ethyl)-3-((R or S)-isochroman-1-yl)pyrrolidin-1-yl)propan-2-yl)-2-methylpyridine citrate]: the ED50 is at most 30 mg/kg.

The same assay, now with this note: Mus musculus; half maximal effective dose in mice; using one of: warm water tail-flick test, spared nerve injury, chronic constriction injury, or Complete Freund's adjuvant induced inflammatory pain (not stated which per compound); read-out: Biological Activity (ED50).
For the compound `CC(C)(c1ccccn1)N1CC[C@@](CCc2ccc(C#N)cc2)(c2ncc(C(F)(F)F)[nH]2)C1` [Compound 108, (R)-4-(2-(1-(2-(pyridin-2-yl)propan-2-yl)-3-(5-(trifluoromethyl)-1H-imidazol-2-yl)pyrrolidin-3-yl)ethyl) benzonitrile], the ED50 was above 50 mg/kg.
For `CC(C)(c1ccccn1)N1CC[C@@](CCc2ccc(C#N)cc2)(C(=O)C(F)(F)F)C1` [Compound 100, (R)-4-(2-(1-(2-(pyridin-2-yl)propan-2-yl)-3-(2,2,2-trifluoroacetyl)pyrrolidin-3-yl)ethyl) benzonitrile], the ED50 was above 50 mg/kg.
On the same count and under the same terms, the result for `CC(C)(c1ccccn1)N1CC[C@](C#N)(CCc2ccc3ccoc3c2)C1` [Compound 180, (R)-3-(2-(benzofuran-6-yl)ethyl)-1-(2-(pyridin-2-yl)propan-2-yl)pyrrolidine-3-carbonitrile] reads above 50 mg/kg; that for `CC1(C)COC1[C@]1(CCc2ccc(C#N)cc2)CCN(Cc2ncc(Cl)s2)C1` (single isomer, unassigned) [Compound 211, 4-(2-((R)-1-((5-chlorothiazol-2-yl)methyl)-3-((R or S)-3,3-dimethyloxetan-2-yl)pyrrolidin-3-yl)ethyl)benzonitrile], at most 30 mg/kg.
Still for that read-out and setting: for `CC(C)(c1ccccn1)N1CC[C@@](CCc2ccc(C#N)cc2)(COCc2ccccc2)C1` [Compound 131, (R)-4-(2-(3-((benzyloxy)methyl)-1-(2-(pyridin-2-yl)propan-2-yl)pyrrolidin-3-yl)ethyl) benzonitrile] the value was above 50 mg/kg.
Still for that read-out and setting: for `CC(C)c1nc(C(C)(C)N2CC[C@@](CCc3ccc(S(C)(=O)=O)cc3)(C3CCCO3)C2)cs1` (single isomer, unassigned) [Compound 29, 2-isopropyl-4-(2-((R)-3-(4-(methylsulfonyl)phenethyl)-3-((R or S)-tetrahydrofuran-2-yl)pyrrolidin-1-yl)propan-2-yl)thiazole] the value was at most 30 mg/kg; for `CC(C)(c1ccccn1)N1CC[C@](C#N)(CCc2ccc(F)c(F)c2)C1` [Compound 175, (R)-3-(3,4-difluorophenethyl)-1-(2-(pyridin-2-yl)propan-2-yl)pyrrolidine-3-carbonitrile], above 50 mg/kg; for `Cc1cccc(C(C)(C)N2CC[C@@](CCc3ccc(C#N)cc3)(C(=O)O)C2)n1` [Compound 145, (R)-3-(4-cyanophenethyl)-1-(2-(6-methylpyridin-2-yl)propan-2-yl)pyrrolidine-3-carboxylic acid], above 50 mg/kg.
With `CC(C)(c1ccccn1)N1CC[C@@](CCc2ccc(C#N)c(F)c2)(C(O)C(F)(F)F)C1` (single isomer, unassigned) [Compound 103, 2-fluoro-4-(2-((R)-1-(2-(pyridin-2-yl)propan-2-yl)-3-((R or S)-2,2,2-trifluoro-1-hydroxyethyl)pyrrolidin-3-yl)ethyl) benzonitrile], the ED50 was above 50 mg/kg.
In the case of `CC(C)(c1ccccn1)N1CC[C@@](CCc2ccc(C#N)cc2)(CNC2(C(F)(F)F)CC2)C1` [Compound 203, (S)-4-(2-(1-(2-(pyridin-2-yl)propan-2-yl)-3-(((1-(trifluoromethyl)cyclopropyl)amino)methyl)pyrrolidin-3-yl)ethyl) benzonitrile], the ED50 is above 50 mg/kg.
Same read-out and setting: the result for `Cc1ccc(C(C)(C)N2CC[C@@](CCc3ccc(F)cc3)(CS(C)(=O)=O)C2)cn1` [Compound 16, (R)-5-(2-(3-(4-fluorophenethyl)-3-((methylsulfonyl)methyl)pyrrolidin-1-yl)propan-2-yl)-2-methylpyridine] reads at most 30 mg/kg.
